Experimental data taken from patent US5075336A, “Alkaline earth metal salts of oxa polyacid compounds” (Adir et Compagnie, priority 1990, dated 1991).
Where two headings read alike, the source gives them in different places.

How the values were obtained:
[1] = Bioavailability (Sr2+ by atomic absorption spectrometry); conditions: rat, in vivo, po, 50 mg/kg; male wistar rats, 50 mg Sr2+ per kg, gelatin mini capsules; compared with strontium chloride; read-out: Absolute bioavailability
Method: the determination was carried out on groups of 5 male wistar rats
administration is in a dose of 50 mg of Sr^2+ per kg in the form of gelatin mini capsules,
the determination was carried out by atomic absorption spectrometry using flame ionisation for the concentrations higher than 1 μg/ml and furnace ionisation for the concentrations lower than 1 μg/ml

[2] = tested on: Demi-calvarias of newly born mice; assay: Osseous formation in tissue culture: incorporation of tritiated proline (T/C ratio); assay type: cell-based; conditions: 48 h, n = 7
Method: (§1) The activity on osseous formation and the anti-resorbing activity of compounds potentially active as medicaments may be detected and measured in vitro in tissue culture.
Demi-calvarias of newly born mice (1-2 days) are cultured on gratings in BGJ medium containing tritiated proline. The explants are cultured for 48 h in the presence of the tested compound at 37° C. and at the end of the culture the bones are washed in trichloroacetic acid containing non-radioactive proline in order to remove the ^3 H-proline which has not been incorporated.
After washing and dissolving in sodium hydroxide solution, the incorporation of the labler in the bone and the amount of total proteins are counted. The effect of the product on the incorporation of proline in the bone in culture is thus evaluated.
Each treated demi-calvaria is compared with the untreated demi-calvaria which serves as control and the T/C ratio is calculated. [formula]
A stimulation of the osseous formation is reflected by a higher incorporation of tritiated proline in the treated demi-calvaria than in the control (T/C>1). An inhibition of the osseous formation is shown by a T/C ratio of <1.
The compounds were tested at concentrations of 10^-4, 10^-6, 10^-8, 10^-10 and 10^-12 M.
6 to 9 experiments were carried out per point.

[3] = tested on: forearms of rat foetuses (PTH-stimulated osseous resorption); assay: Osseous resorption in tissue culture: 45Ca salted out from PTH-stimulated foetal forearm bones; assay type: cell-based, rats
Method: as §1
18-day pregnant rats are injected with 150 μcuries of ^45 Ca subcutaneously.
On the 19th day the rats are sacrificed and the foetuses are removed, immersed in a bath of alcohol at 70° are then two baths of PBS and killed by cutting off the head. The two forearms are dissected, the skin, the tendons and the muscles are removed and the cartilaginous extremities are cut off. The forearms are cultured in 24-well culture boxes in the presence of 1.5 ml of MEM for 24 hours for equilibration. At the end of said 24 hours, the medium is replaced by 1.5 ml of BGJB supplemented with 10% of foetal calf serum. The resorption is stimulated in all of the samples by […] of PTH. The bones are cultured for two successive periods of 72 hours each and the culture media are removed to determine the amount of ^45 Ca salted out at the end of each of these two periods. At the end of the second period (7 days after the start of culture), the bones are immersed for 24 hours in 1.5 ml of 10% formic acid and the ^45 Ca salted out from the bones is also determined in a scintillation counter.
The results are expressed for each of the two culture periods by the treated/control ratio calculated in the following way: [formula]
The compounds were tested on this model at concentrations of 5×10^-3 and 5×10^-4 M.

[4] = PTH alone (reference of the ratio)

In the case of `CCOC(OC(CO)C(=O)O)C(=O)O` (stereo not drawn) [Example 1, Strontium 2-ethoxy-4-hydroxymethyl-3-oxa pentanedioate], the bioavailability [1] is reported as 60.5%, the “Osseous formation, T/C ratio, maximum value” ([2]; 10^-4 M) is reported as 1.8034 and the “Osseous formation, T/C ratio, minimum value” ([2]; 10^-4 M) is reported as 1.2095. For the same molecule, the “Osseous formation, T/C ratio, maximum value” ([2]; 10^-6 M) was 1.4652, the “Osseous formation, T/C ratio, minimum value” ([2]; 10^-6 M) was 0.8433 and the “Osseous formation, T/C ratio, maximum value” ([2]; 10^-8 M) was 1.2092. For the same molecule, the “Osseous formation, T/C ratio, minimum value” ([2]; 10^-8 M) was 0.8511, the “Osseous formation, T/C ratio, maximum value” ([2]; 10^-10 M) was 1.0974 and the “Osseous formation, T/C ratio, minimum value” ([2]; 10^-10 M) was 0.8467. The “Osseous formation, T/C ratio, maximum value” ([2]; 10^-12 M) was 1.2822, the “Osseous formation, T/C ratio, minimum value” ([2]; 10^-12 M) was 0.8988 and the activity at 100 µM ([2]; Mus musculus, 10^-4 M, 37° C., marked **) was 150%. For the same molecule, the activity at 1 µM ([2]; Mus musculus, 10^-6 M, 37° C.) was 107%, the activity at 0.01 µM ([2]; Mus musculus, 10^-8 M, 37° C.) was 103% and the activity at 0.0001 µM ([2]; Mus musculus, 10^-10 M, 37° C.) was 97.2%. The activity at 1 pM ([2]; Mus musculus, 10^-12 M, 37° C.) was 106%, the “Level of osseous resorption (%), D1-D4” value ([3]; 5 10^-3 (M), PTH-stimulated, 9 determinations per point, (c) different from PTH at p < 0.05) was 6.4 ± 0.9% and the “Level of osseous resorption (%), D1-D4” value ([3]; 5 10^-4 (M), PTH-stimulated, 9 determinations per point) was 14.5 ± 4.1%. The activity at 5000 µM ([3]; Rattus norvegicus, 5 10^-3 (M), PTH-stimulated, read-out: Osseous resorption T/C, D1-D4) was 45%, the activity at 5000 µM ([3]; Rattus norvegicus, 5 10^-3 (M), PTH-stimulated, read-out: Osseous resorption T/C, D4-D7) was 6% and the activity at 500 µM ([3]; Rattus norvegicus, 5 10^-4 (M), PTH-stimulated, read-out: Osseous resorption T/C, D1-D4) was 101%. The activity at 500 µM ([3]; Rattus norvegicus, 5 10^-4 (M), PTH-stimulated, read-out: Osseous resorption T/C, D4-D7) was 84% and the minimal effective concentration ([3]; Rattus norvegicus, in vitro, PTH-stimulated, read-out: Concentration from which anti-resorbing activity is statistically significant) was 500 µM.

B1: PTH: PTH, used to stimulate the resorption in all of the samples (protein, UniProt P01270 32-115, looked up)
Parathyroid hormone: SVSEIQLMHNLGKHLNSMERVEWLRKKLQDVHNFVALGAPLAPRDAGSQRPRKKEDNVLVESHEKSLGEADKADVNVLTKAKSQ
modifications: Parathyroid hormone
notes: PTH, used to stimulate the resorption in all of the samples
In the case of B1, the “Osseous resorption T/C, D1-D4” value [3, 4] is reported as 1.00, the “Osseous resorption T/C, D4-D7” value [3, 4] is reported as 1.00 and the “Level of osseous resorption (%), D1-D4” value ([3]; PTH alone, 9 determinations per point, (a) different from control at p < 0.05) is reported as 14.3 ± 3.4%. The “Level of osseous resorption (%), D1-D7” value ([3]; PTH alone, 9 determinations per point, (b) different from control at p < 0.0001) was 37.0 ± 7.6%.
